Assays:
[1] = system: sedge, umbrella; assay: Test C flooded paddy test; type: in vivo, Cyperus difformis; conditions: Flood, applied to paddy water, rating after 13 to 15 d
Outline: (§1)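 Pots were flooded to 3 cm above the soil at treatment, and compounds were applied directly into the paddy water. That depth was held throughout. After 13 to 15 d in a greenhouse, plants were rated visually against untreated controls.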

[2] = system: barnyardgrass; assay: Test C flooded paddy test; type: in vivo, Echinochloa crus-galli; conditions: Flood, applied to paddy water, rating after 13 to 15 d
Outline: as §1

[3] = system: ducksalad; assay: Test C flooded paddy test; type: in vivo, Heteranthera limosa; conditions: Flood, applied to paddy water, rating after 13 to 15 d
Outline: as §1

[4] = system: pigweed, palmer; assay: Test E preemergence; type: in vivo, Amaranthus palmeri; conditions: scale 0 to 100
Excerpt: (§2) Seeds of plant species selected from corn (Zea mays), soybean (Glycine max), lambsquarters (Chenopodium album), poinsettia, wild (wild poinsettia, Euphorbia heterophylla), pigweed, palmer (palmer pigweed, Amaranthus palmeri), waterhemp (common waterhemp, Amaranthus rudis), surinam grass (Brachiaria decumbens), crabgrass, large (large crabgrass, Digitaria sanguinalis), crabgrass, Brazilian (Brazilian crabgrass, Digitaria horizontalis), panicum, fall (fall panicum, Panicum dichotomiflorum), foxtail, giant (giant foxtail, Setaria faberii), foxtail, green (green foxtail, Setaria viridis), goosegrass (Eleusine indica), johnsongrass (Sorghum halepense), ragweed (common ragweed, Ambrosia elatior), barnyardgrass (Echinochloa crus-galli), sandbur (southern sandbur, Cenchrus echinatus), arrowleaf sida (Sida rhombifolia), ryegrass, Italian (Italian ryegrass, Lolium multiflorum), dayflower, VA (Virginia dayflower, Commelina virginica), field bindweed (Convolvulus arvensis), cocklebur (common cocklebur, Xanthium strumarium), morningglory (Ipomoea coccinea), nightshade (eastern black nightshade, Solanum ptycanthum), kochia (Kochia scoparia), nutsedge, yellow (yellow nutsedge, Cyperus esculentus), smartweed (ladysthumb smartweed, Polygonum persicaria), velvetleaf (Abutilon theophrasti), horseweed (Conyza canadensis), and beggarticks (hairy beggarticks, Bidens pilosa), were planted into a silt loam soil and treated preemergence with test chemicals formulated in a non-phytotoxic solvent mixture which included a surfactant.
(§3) At the same time, plants from these crop and weed species and also waterhemp_RES1, (ALS & Triazine resistant common waterhemp, Amaranthus rudis), and waterhemp_RES2, (ALS & HPPD resistant common waterhemp, Amaranthus rudis) were planted in pots containing Sunshine Redi-Earth® planting medium comprising spaghnum peat moss, vermiculite, starter nutrients and dolomitic limestone were treated with postemergence applications of test chemicals formulated in the same manner. Plants ranged in height from 2 to 18 cm for postemergence treatments (1- to 4-leaf stage). Treated plants and controls were maintained in a greenhouse for 14 to 21 d, after which time all species were compared to controls and visually evaluated. Plant response ratings, summarized in Table E, are based on a scale of 0 to 100 where 0 is no effect and 100 is complete control. A dash (-) response means no test result.

[5] = system: nightshade; assay: Test E preemergence; type: in vivo, Solanum ptycanthum; conditions: scale 0 to 100
Excerpt: as §2, §3

[6] = system: cocklebur; assay: Test E preemergence; type: in vivo, Xanthium strumarium; conditions: scale 0 to 100
Excerpt: as §2, §3

[7] = system: soybean; assay: Test E preemergence; type: in vivo, Glycine max; conditions: scale 0 to 100
Excerpt: as §2, §3

[8] = system: barnyardgrass; assay: Test E preemergence; type: in vivo, Echinochloa crus-galli; conditions: scale 0 to 100
Excerpt: as §2, §3

[9] = system: smartweed; assay: Test E preemergence; type: in vivo, Polygonum persicaria; conditions: scale 0 to 100
Excerpt: as §2, §3

[10] = system: lambsquarters; assay: Test E preemergence; type: in vivo, Chenopodium album; conditions: scale 0 to 100
Excerpt: as §2, §3

[11] = system: arrowleaf sida; assay: Test E postemergence; type: in vivo, Sida rhombifolia; conditions: scale 0 to 100
Excerpt: as §2, §3

[12] = system: ryegrass, Italian; assay: Test E postemergence; type: in vivo, Lolium multiflorum; conditions: scale 0 to 100
Excerpt: as §2, §3

[13] = system: kochia; assay: Test E postemergence; type: in vivo, Kochia scoparia; conditions: scale 0 to 100
Excerpt: as §2, §3

[14] = system: crabgrass, Brazilian; assay: Test E postemergence; type: in vivo, Digitaria horizontalis; conditions: Brazil, scale 0 to 100
Excerpt: as §2, §3

[15] = system: horseweed; assay: Test E preemergence; type: in vivo, Conyza canadensis; conditions: scale 0 to 100
Excerpt: as §2, §3

## Cn1nc(-c2ccc(F)cc2)nc1Oc1cccc(C(F)(F)F)c1 [Compound 5, 3-(4-fluorophenyl)-1-methyl-5-[3-(trifluoromethyl)phenoxy]-1H-1,2,4-triazole]
[1]; 31 g ai/ha
  Sedge, Umbrella plant response rating (0 to 100): 0
[1]; 62 g ai/ha
  Sedge, Umbrella plant response rating (0 to 100): 0
[1]; 125 g ai/ha
  Sedge, Umbrella plant response rating (0 to 100): 20
[1]; 250 g ai/ha
  Sedge, Umbrella plant response rating (0 to 100): 40
[2]; 31 g ai/ha
  Barnyardgrass plant response rating (0 to 100): 10
[2]; 62 g ai/ha
  Barnyardgrass plant response rating (0 to 100): 10
[2]; 125 g ai/ha
  Barnyardgrass plant response rating (0 to 100): 15
[2]; 250 g ai/ha
  Barnyardgrass plant response rating (0 to 100): 15
[3]; 31 g ai/ha
  Ducksalad plant response rating (0 to 100): 20
[3]; 62 g ai/ha
  Ducksalad plant response rating (0 to 100): 30
[3]; 125 g ai/ha
  Ducksalad plant response rating (0 to 100): 40
[3]; 250 g ai/ha
  Ducksalad plant response rating (0 to 100): 60

## CCCc1nc(-c2ccc(F)cc2)nn1Cc1ccnc(C(F)(F)F)c1 [Compound 6, 4-[[3-(4-fluorophenyl)-5-propyl-1H-1,2,4-triazol-1-yl]methyl]-2-(trifluoromethyl)pyridine]
[4]; 16 g ai/ha
  Plant response rating: 50
[4]; 31 g ai/ha
  Plant response rating: 75
[4]; 62 g ai/ha
  Plant response rating: 90
[4]; 125 g ai/ha
  Plant response rating: 100
[4]; 250 g ai/ha
  Plant response rating: 100
[5]; 16 g ai/ha
  Plant response rating: 15
[5]; 31 g ai/ha
  Plant response rating: 70
[5]; 62 g ai/ha
  Plant response rating: 90
[5]; 125 g ai/ha
  Plant response rating: 100
[5]; 250 g ai/ha
  Plant response rating: 100
[6]; 16 g ai/ha
  Plant response rating: 0
[6]; 31 g ai/ha
  Plant response rating: 0
[6]; 62 g ai/ha
  Plant response rating: 0
[6]; 250 g ai/ha
  Plant response rating: 10
[7]; 16 g ai/ha
  Plant response rating: 0
[7]; 31 g ai/ha
  Plant response rating: 10
[7]; 62 g ai/ha
  Plant response rating: 40
[7]; 125 g ai/ha
  Plant response rating: 50
[7]; 250 g ai/ha
  Plant response rating: 70
[8]; 16 g ai/ha
  Plant response rating: 10
[8]; 31 g ai/ha
  Plant response rating: 40
[8]; 62 g ai/ha
  Plant response rating: 50
[8]; 125 g ai/ha
  Plant response rating: 60
[8]; 250 g ai/ha
  Plant response rating: 75
[9]; 16 g ai/ha
  Plant response rating: 20
[9]; 31 g ai/ha
  Plant response rating: 50
[9]; 62 g ai/ha
  Plant response rating: 60
[9]; 125 g ai/ha
  Plant response rating: 95
[9]; 250 g ai/ha
  Plant response rating: 95
[10]; 31 g ai/ha
  Plant response rating: 70
[10]; 62 g ai/ha
  Plant response rating: 100
[10]; 125 g ai/ha
  Plant response rating: 100
[10]; 250 g ai/ha
  Plant response rating: 100

## CCOc1nc(-c2ccc(F)cc2)nn1Cc1ccnc(C(F)(F)F)c1 [Compound 8, 4-[[5-ethoxy-3-(4-fluorophenyl)-1H-1,2,4-triazol-1-yl]methyl]-2-(trifluoromethyl)pyridine]
[4]; 62 g ai/ha
  Plant response rating: 100
[4]; 125 g ai/ha
  Plant response rating: 100
[5]; 62 g ai/ha
  Plant response rating: 98
[5]; 125 g ai/ha
  Plant response rating: 100
[7]; 62 g ai/ha
  Plant response rating: 50
[7]; 125 g ai/ha
  Plant response rating: 50
[8]; 62 g ai/ha
  Plant response rating: 75
[8]; 125 g ai/ha
  Plant response rating: 95
[10]; 62 g ai/ha
  Plant response rating: 100
[10]; 125 g ai/ha
  Plant response rating: 100

## CCOc1nc(-c2ccccc2)nn1Cc1ccnc(C(F)(F)F)c1 [Compound 27]
[11]; 16 g ai/ha
  Plant response rating: 70
[11]; 31 g ai/ha
  Plant response rating: 80
[11]; 62 g ai/ha
  Plant response rating: 90
[11]; 125 g ai/ha
  Plant response rating: 100
[4]; 16 g ai/ha
  Plant response rating: 85
[4]; 31 g ai/ha
  Plant response rating: 100
[4]; 62 g ai/ha
  Plant response rating: 100
[4]; 125 g ai/ha
  Plant response rating: 100
[12]; 16 g ai/ha
  Plant response rating: 20
[12]; 31 g ai/ha
  Plant response rating: 30
[12]; 62 g ai/ha
  Plant response rating: 30
[12]; 125 g ai/ha
  Plant response rating: 40
[5]; 16 g ai/ha
  Plant response rating: 0
[5]; 31 g ai/ha
  Plant response rating: 50
[5]; 62 g ai/ha
  Plant response rating: 98
[5]; 125 g ai/ha
  Plant response rating: 100
[7]; 16 g ai/ha
  Plant response rating: 0
[7]; 31 g ai/ha
  Plant response rating: 0
[7]; 62 g ai/ha
  Plant response rating: 0
[7]; 125 g ai/ha
  Plant response rating: 15
[13]; 16 g ai/ha
  Plant response rating: 95
[13]; 31 g ai/ha
  Plant response rating: 100
[13]; 62 g ai/ha
  Plant response rating: 95
[13]; 125 g ai/ha
  Plant response rating: 95
[14]; 16 g ai/ha
  Plant response rating: 20
[14]; 31 g ai/ha
  Plant response rating: 20
[14]; 62 g ai/ha
  Plant response rating: 30
[14]; 125 g ai/ha
  Plant response rating: 40
[8]; 16 g ai/ha
  Plant response rating: 10
[8]; 31 g ai/ha
  Plant response rating: 25
[8]; 62 g ai/ha
  Plant response rating: 90
[8]; 125 g ai/ha
  Plant response rating: 95
[10]; 16 g ai/ha
  Plant response rating: 80
[10]; 31 g ai/ha
  Plant response rating: 100
[10]; 62 g ai/ha
  Plant response rating: 100
[10]; 125 g ai/ha
  Plant response rating: 100

## Fc1ccc(-c2nc(OCC(F)(F)F)n(Cc3ccnc(C(F)(F)F)c3)n2)cc1 [Compound 30]
[11]; 31 g ai/ha
  Plant response rating: 100
[11]; 62 g ai/ha
  Plant response rating: 95
[11]; 125 g ai/ha
  Plant response rating: 95
[11]; 250 g ai/ha
  Plant response rating: 98
[4]; 31 g ai/ha
  Plant response rating: 90
[4]; 62 g ai/ha
  Plant response rating: 100
[4]; 125 g ai/ha
  Plant response rating: 100
[4]; 250 g ai/ha
  Plant response rating: 100
[12]; 31 g ai/ha
  Plant response rating: 25
[12]; 62 g ai/ha
  Plant response rating: 25
[12]; 125 g ai/ha
  Plant response rating: 40
[12]; 250 g ai/ha
  Plant response rating: 50
[5]; 31 g ai/ha
  Plant response rating: 20
[5]; 62 g ai/ha
  Plant response rating: 80
[5]; 125 g ai/ha
  Plant response rating: 90
[5]; 250 g ai/ha
  Plant response rating: 98
[7]; 31 g ai/ha
  Plant response rating: 0
[7]; 62 g ai/ha
  Plant response rating: 0
[7]; 125 g ai/ha
  Plant response rating: 0
[7]; 250 g ai/ha
  Plant response rating: 30
[13]; 31 g ai/ha
  Plant response rating: 90
[13]; 62 g ai/ha
  Plant response rating: 90
[13]; 125 g ai/ha
  Plant response rating: 100
[13]; 250 g ai/ha
  Plant response rating: 90
[14]; 31 g ai/ha
  Plant response rating: 35
[14]; 62 g ai/ha
  Plant response rating: 60
[14]; 125 g ai/ha
  Plant response rating: 70
[14]; 250 g ai/ha
  Plant response rating: 85
[8]; 31 g ai/ha
  Plant response rating: 20
[8]; 62 g ai/ha
  Plant response rating: 70
[8]; 125 g ai/ha
  Plant response rating: 75
[8]; 250 g ai/ha
  Plant response rating: 95
[10]; 31 g ai/ha
  Plant response rating: 90
[10]; 62 g ai/ha
  Plant response rating: 98
[10]; 125 g ai/ha
  Plant response rating: 100
[10]; 250 g ai/ha
  Plant response rating: 100
[15]; 31 g ai/ha
  Plant response rating: 100
[15]; 62 g ai/ha
  Plant response rating: 100
[15]; 125 g ai/ha
  Plant response rating: 100
[15]; 250 g ai/ha
  Plant response rating: 100

From patent publication US10681909B2, “Herbicidal triazoles” (FMC Corporation, priority 2014, dated 2020)
